# Experiment: Equilibrium solubility of vitamin A in supercritical CO2 (static cell, UV-VIS)
# Assay type: physicochemical
# Procedure: Figure 1 indicates the system used for measuring the equilibrium solubility. […] Consequently, the gas was liquefied through dropping the temperature to − 20 °C so that it was prepared for pumping function by means of pressure controlling instruments (TEBCO, Iran) with an uncertainty of ± 0.1 MPa.
# After CO2 pumped into the inlet solvent stream, the methanol tank (as a co-solvent in this section) and modulator valve controlled the solvent concentration. The inlet solvent concentration should be regulated. Thus, it is an adjustable factor as function of solute content based on simultaneous data from experimental setup. The pressure of the circuit was taken into the collection container through altering amount of modulator on the injection tap. This includes a certain volume of solvent (CO2 and methanol). Providing the thermal equilibrium condition with the inner part of the oven in shorter time, this equilibrium spiral pipe can be utilized for efficient mixing of CO2 and modulators. The cell was put inside carefully (FG Model, BF400E, Iran) to keep the operating temperature (with ± 0.5 K).
# Roughly before the start of the extraction, 500 mg of powder Retinol were put into the static cell with the volume of 10 mL and due to the pressure drop, downward flowrate (in line with weight force of the materials) was used. Eluding physical entrainment of the unextracted Vitamin A (Rich Retinol), the tops of the pressurized equilibrium cell were connected by means of the stainless-steel disks before SC-CO2 was distributed into the cell, its pressure was enhanced up to the anticipated pressure before it is moved through the equilibrium cell at operational conditions. In the present research, 60 min was estimated to achieve the state of equilibrium (in the cell).
# In fact, the final sample (in the standard state) in two phases of gas (carbon dioxide) and liquid phase (solution containing methanol and vitamin A) It was stored in accumulation glass and entered the spectrophotometer. Finally, the solvent was used to clean the circuit.
# As solubility values of Vitamin A were obtained in various conditions, they were noted by absorbency mensuration’s at λmax using a model 2100 UNICO UV–VIS spectrophotometer with 1000 nm Wavelength. The equilibrium mole fraction yA and equilibrium solubility, S(g/L) in SC-CO2 over the ranges of temperature and pressure obtained from below equation[21]:1 yA=nA/nA+nC where2 nA=CAg/L×VAL/MAg/mol 3 nC=VlL×ρg/L/MCg/mol where nA and nC are sample moles of vitamin A and solvent, CA is the concentration of vitamin A g/L in the accumulation glass calculated by the curve of calibration. The volumes of the accumulation vial are denoted by VAL and VlL is the sampling circuit. Furthermore, MA and MC are the molecular weights of Vitamin A and CO2, respectively. By combining the aforementioned, the subsequent relation is achieved (Eq. (4)).4 yA=CAg/L×VSL×MCg/mol/CAg/L×VAL×MCg/mol+VlL×ρg/L×MAg/mol
# In order to obtain the g/L of Vitamin A in SC-CO2 […] was used[21].5 Sg/L=CAg/L×VAL/VlL
smiles,measurement,setting,value
"CC1=C(/C=C/C(C)=C/C=C/C(C)=C/CO)C(C)(C)CCC1 [vitamin A, Retinol]",Mole fraction,"SC-CO2, 303 K, 90 bar",2.18e-05
same,Mole fraction,"SC-CO2, 303 K, 115 bar",2.92e-05
same,Mole fraction,"SC-CO2, 303 K, 130 bar",3.58e-05
same,Mole fraction,"SC-CO2, 303 K, 140 bar",4.12e-05
same,Mole fraction,"SC-CO2, 303 K, 155 bar",5.29e-05
same,Mole fraction,"SC-CO2, 303 K, 175 bar",6.01e-05
same,Mole fraction,"SC-CO2, 303 K, 185 bar",6.25e-05
same,Mole fraction,"SC-CO2, 303 K, 195 bar",7.21e-05
same,Mole fraction,"SC-CO2, 303 K, 220 bar",7.96e-05
same,Mole fraction,"SC-CO2, 303 K, 230 bar",8.19e-05
same,Mole fraction,"SC-CO2, 303 K, 245 bar",8.32e-05
same,Mole fraction,"SC-CO2, 313 K, 100 bar",1.68e-05
same,Mole fraction,"SC-CO2, 313 K, 120 bar",3.62e-05
same,Mole fraction,"SC-CO2, 313 K, 130 bar",5.41e-05
same,Mole fraction,"SC-CO2, 313 K, 140 bar",5.25e-05
same,Mole fraction,"SC-CO2, 313 K, 155 bar",6.63e-05
same,Mole fraction,"SC-CO2, 313 K, 170 bar",8.13e-05
same,Mole fraction,"SC-CO2, 313 K, 200 bar",0.000125
same,Mole fraction,"SC-CO2, 313 K, 235 bar",0.000138
same,Mole fraction,"SC-CO2, 313 K, 245 bar",0.000149
same,Mole fraction,"SC-CO2, 323 K, 110 bar",2.68e-05
same,Mole fraction,"SC-CO2, 323 K, 135 bar",5.24e-05
same,Mole fraction,"SC-CO2, 323 K, 180 bar",0.00014
same,Mole fraction,"SC-CO2, 323 K, 195 bar",0.000148
same,Mole fraction,"SC-CO2, 323 K, 205 bar",0.00016
same,Mole fraction,"SC-CO2, 323 K, 235 bar",0.000196
same,cross-over pressure,"SC-CO2, isotherms at 303, 313 and 323 K (Fig. 3)",110 bar
same,solubility of fat-soluble vitamin A in SC-CO2,"SC-CO2, under certain conditions",~0.7 g/kg
same,solubility thermodynamic at 60 min,"supercritical CO2 in a 10 mL static equilibrium cell, organic solvent or mixture, thermodynamic from solid, SC-CO2, 303–323 K, 90–235 bar, minimum at 303 K, 90 bar, maximum at 323 K, 235 bar, read-out: equilibrium solubility S of Vitamin A in SC-CO2, span over all conditions",96 to 1040 µg/mL
